Test results as given in publication PMC8694024 (RSC Advances, 2021).
Where two headings read alike, the source gives them in different places.

Assays:
[1] = target: T1, β-glucosidase from Aspergillus niger (Aspergillus niger, UniProt A2RAL4); experiment: Inhibition of β-glucosidase from Aspergillus niger, β-p-NPG substrate; format: biochemical; settings: read-out: Apparent IC50, A. niger β-glucosidase; pH 4.6, β-p-NPG substrate
T1 sequence (A2RAL4 20-860): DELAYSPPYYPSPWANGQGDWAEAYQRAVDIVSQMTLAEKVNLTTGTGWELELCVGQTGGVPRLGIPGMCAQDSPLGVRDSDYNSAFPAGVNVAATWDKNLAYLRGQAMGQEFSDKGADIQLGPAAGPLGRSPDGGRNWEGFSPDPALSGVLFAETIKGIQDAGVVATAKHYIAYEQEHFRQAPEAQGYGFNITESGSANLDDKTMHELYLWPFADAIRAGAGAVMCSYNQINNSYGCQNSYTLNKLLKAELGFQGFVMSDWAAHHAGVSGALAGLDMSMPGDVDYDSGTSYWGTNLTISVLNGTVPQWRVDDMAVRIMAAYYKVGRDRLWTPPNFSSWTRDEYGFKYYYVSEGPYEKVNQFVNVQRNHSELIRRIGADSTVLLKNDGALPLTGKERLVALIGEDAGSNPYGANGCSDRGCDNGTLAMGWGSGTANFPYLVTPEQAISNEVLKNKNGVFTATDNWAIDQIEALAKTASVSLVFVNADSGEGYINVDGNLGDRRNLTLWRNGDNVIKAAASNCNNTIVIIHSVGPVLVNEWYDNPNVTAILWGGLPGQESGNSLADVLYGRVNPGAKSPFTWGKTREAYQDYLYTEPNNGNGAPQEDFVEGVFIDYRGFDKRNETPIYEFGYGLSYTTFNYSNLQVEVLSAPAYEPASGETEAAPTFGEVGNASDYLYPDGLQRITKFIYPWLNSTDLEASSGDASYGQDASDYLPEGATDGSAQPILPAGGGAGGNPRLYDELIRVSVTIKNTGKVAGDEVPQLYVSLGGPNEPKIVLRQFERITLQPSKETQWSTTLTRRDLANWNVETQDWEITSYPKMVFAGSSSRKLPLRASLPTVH

[2] = target: T2, rat intestinal isomaltase (Rattus norvegicus, UniProt P23739); experiment: Inhibitory effects on rat intestinal α-glucosidases: isomaltase; format: biochemical
T2 sequence (P23739 whole entry): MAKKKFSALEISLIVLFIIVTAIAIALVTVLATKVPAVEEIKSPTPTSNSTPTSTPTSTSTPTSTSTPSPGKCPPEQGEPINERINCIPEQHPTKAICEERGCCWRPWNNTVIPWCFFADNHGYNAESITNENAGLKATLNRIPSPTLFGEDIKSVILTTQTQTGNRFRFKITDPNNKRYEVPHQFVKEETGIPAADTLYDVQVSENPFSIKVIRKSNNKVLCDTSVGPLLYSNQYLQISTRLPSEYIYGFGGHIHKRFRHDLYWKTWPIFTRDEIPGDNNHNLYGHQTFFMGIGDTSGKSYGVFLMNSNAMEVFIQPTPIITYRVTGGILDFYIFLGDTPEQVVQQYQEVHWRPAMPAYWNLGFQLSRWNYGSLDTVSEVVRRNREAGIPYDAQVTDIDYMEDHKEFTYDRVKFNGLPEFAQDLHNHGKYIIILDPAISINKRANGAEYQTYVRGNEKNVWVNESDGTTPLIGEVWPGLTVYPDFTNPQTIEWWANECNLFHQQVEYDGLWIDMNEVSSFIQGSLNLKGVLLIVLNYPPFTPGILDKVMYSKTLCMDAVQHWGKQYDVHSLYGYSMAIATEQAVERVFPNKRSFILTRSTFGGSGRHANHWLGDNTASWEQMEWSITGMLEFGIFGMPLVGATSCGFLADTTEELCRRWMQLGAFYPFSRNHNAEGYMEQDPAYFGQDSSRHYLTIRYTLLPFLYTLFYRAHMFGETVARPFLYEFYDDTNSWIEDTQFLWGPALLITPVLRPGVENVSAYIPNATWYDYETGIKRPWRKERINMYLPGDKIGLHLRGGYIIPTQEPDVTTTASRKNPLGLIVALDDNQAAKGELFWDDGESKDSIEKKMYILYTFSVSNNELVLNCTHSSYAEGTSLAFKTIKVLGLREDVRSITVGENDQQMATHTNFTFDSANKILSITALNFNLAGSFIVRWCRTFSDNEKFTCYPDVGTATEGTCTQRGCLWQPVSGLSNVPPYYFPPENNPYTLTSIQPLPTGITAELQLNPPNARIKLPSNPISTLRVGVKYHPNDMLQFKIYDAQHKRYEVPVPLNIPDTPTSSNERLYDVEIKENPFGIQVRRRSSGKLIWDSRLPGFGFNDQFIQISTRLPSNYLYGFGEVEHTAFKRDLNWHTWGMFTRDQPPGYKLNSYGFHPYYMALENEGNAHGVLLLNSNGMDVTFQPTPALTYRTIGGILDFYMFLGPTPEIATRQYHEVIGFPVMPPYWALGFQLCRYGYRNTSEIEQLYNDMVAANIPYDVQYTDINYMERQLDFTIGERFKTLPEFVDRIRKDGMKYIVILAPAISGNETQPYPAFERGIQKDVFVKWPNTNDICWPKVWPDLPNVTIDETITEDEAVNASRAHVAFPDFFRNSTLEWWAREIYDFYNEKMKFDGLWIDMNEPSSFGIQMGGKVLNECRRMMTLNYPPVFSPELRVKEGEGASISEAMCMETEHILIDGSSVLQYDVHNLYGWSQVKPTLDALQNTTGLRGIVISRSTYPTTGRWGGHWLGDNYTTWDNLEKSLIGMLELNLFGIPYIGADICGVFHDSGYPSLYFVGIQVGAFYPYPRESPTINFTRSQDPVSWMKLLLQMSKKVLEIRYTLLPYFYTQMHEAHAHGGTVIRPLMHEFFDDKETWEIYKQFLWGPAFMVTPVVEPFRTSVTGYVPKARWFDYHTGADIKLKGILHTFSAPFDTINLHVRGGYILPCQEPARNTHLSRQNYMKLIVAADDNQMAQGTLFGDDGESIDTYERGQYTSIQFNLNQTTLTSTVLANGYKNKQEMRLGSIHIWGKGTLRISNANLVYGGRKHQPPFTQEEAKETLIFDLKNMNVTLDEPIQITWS

rat intestinal maltase [3] = experiment: Inhibitory effects on rat intestinal α-glucosidases: maltase; format: biochemical; settings: read-out: Apparent IC50, Maltase; rat intestinal disaccharidases
rat intestinal sucrase = rat intestinal sucrase (Rattus norvegicus, UniProt P23739); experiment: Inhibitory effects on rat intestinal α-glucosidases: sucrase; format: biochemical
rat intestinal sucrase, sequence (P23739 whole entry): as above

[4] = target: T2, rat intestinal isomaltase; settings: read-out: Apparent IC50, Isomaltase; rat intestinal disaccharidases; cited from earlier work
rat intestinal maltase [5] = settings: read-out: Apparent IC50, Maltase; rat intestinal disaccharidases; cited from earlier work
[6] = tested on: intestinal α-glucosidases; settings: cited from earlier work
[7] = target: recombinant human α-glucosidase GAA (Homo sapiens, UniProt P10253); experiment: Inhibition of recombinant human α-glucosidase GAA; format: biochemical
[8] = read-out: Apparent IC50, Isomaltase, rat intestinal disaccharidases
[9] = read-out: Apparent IC50, Sucrase, rat intestinal disaccharidases

Compound	IC50 [1]	IC50 [2, 8]	IC50 (rat intestinal maltase [3])	IC50 (rat intestinal sucrase; [9])	further results
2', 3'-epi-Salacinol [Compound 12]	> 1000 µM	> 100 µM	> 100 µM	> 100 µM	–
2'-epi-Neosalacinol [Compound 11]	> 1000 µM	> 100 µM	> 100 µM	–	–
2'-epi-Salacinol [Compound 10]	> 1000 µM	> 100 µM	> 100 µM	> 100 µM	–
3'-epi-Salacinol [Compound 8]	> 1000 µM	6.4 µM	> 100 µM	19 µM	–
O=S(=O)([O-])O[C@@H](CO)[C@H](O)C[S@+]1C[C@@H](O)[C@H](O)[C@H]1CO [Compound 1, Salacinol]	–	–	–	–	IC50 [4]: 5.2 µM; IC50 (rat intestinal maltase [5]): 5.2 µM; type of inhibition (Lineweaver–Burk plots) [6]: competitive type of inhibition
OCC(CO)N[C@H]1C[C@](O)(CO)[C@@H](O)[C@H](O)[C@H]1O [Voglibose]	–	–	–	–	Ki [7]: 7.6 ± 0.8 µM

Continued, in another order:

IC50 [1]	IC50 [2, 8]	IC50 (rat intestinal maltase [3])	IC50 (rat intestinal sucrase; [9])	Compound	further results
> 1000 µM	34 µM	> 100 µM	–	2', 3'-epi-Neosalacinol [Compound 13]	–
> 1000 µM	0.58 µM	4.3 µM	0.69 µM	3'-epi-Neosalacinol [Compound 9]	–
–	–	25 µM	–	[O-][C@@H](CO)[C@H](O)C[S@+]1C[C@@H](O)[C@H](O)[C@H]1CO [Compound 2, neosalacinol, reference compound]	Ki [7]: 3.6 ± 0.3 µM; IC50 (rat intestinal sucrase): 3.6 µM; IC50 [2]: 0.45 µM
